Assay results reported in PubChem BioAssay (NCI).
Several values for one entry are separate records, joined by “and”; a condition that tells them apart may be missing. Equal entries are not always repeated.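 In this assay, cells in 96-well plates receive the compound at five concentrations for 48 hours. Endpoints are linearly interpolated between the surrounding concentrations. At the GI50, growth is halved. TGI: concentration producing complete growth inhibition.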

Each molecule was assayed on OVCAR-5 ovarian (assay: NCI-60 cell line screen, 48 h).

Structure (SMILES)	TGI [µM]	GI50 [µM]
COC(=O)C1=C(C)N(NC(=O)OC(C)(C)C)C(=O)C1=P(c1ccccc1)(c1ccccc1)c1ccccc1	> 100	–
O=C1OC(c2ccccc2)=N/C1=C\c1cccc2ccccc12	> 100	–
C[C@@H]1CC(=O)C2CCCC1C2=O (stereo not given in full)	> 100	–
COC1=C(C)C(=O)c2c(c(COC(N)=O)c3n2CC2C3N2C)C1=O (stereo not given)	0.324	–
COc1ccc(Cn2cc3c(c2-c2ccccc2)CC(C)(C)c2cnoc2-3)cc1	> 100	4.39
CN1c2ccc(Cl)cc2C(=O)NC1c1ccc([N+](=O)[O-])s1 (stereo not given)	54.1	–
c1cc(CNC23CC4CC(CC(C4)C2)C3)cc(C[N+](Cc2cccc(CNC34CC5CC(CC(C5)C3)C4)c2)(Cc2cccc(CNC34CC5CC(CC(C5)C3)C4)c2)Cc2cccc(CNC34CC5CC(CC(C5)C3)C4)c2)c1 (stereo not given)	11.5	4.09
Oc1cccnc1CN1CCCCC1	> 100	–
CN(C)C(=O)c1cc2cnc(Nc3ccc(-c4csc5c(=S)cc(N6CCOCC6)oc45)cc3)nc2n1C1CCCC1	> 50	0.485
COC1=CC(=O)c2nc(-c3cccc(C)n3)[nH]c2C1=O	> 100	30.9

These molecules were tested on SF-268 CNS (assay: NCI-60 cell line screen, 48 h).

Structure (SMILES)	GI50 [µM]	TGI
COc1cc2c3c(n(CCCNC(=O)OCC4c5ccccc5-c5ccccc54)c(=O)c2cc1OC)-c1cc2c(cc1/C3=C\CCNC(=O)OCC1c3ccccc3-c3ccccc31)OCO2	1.48	> 14 µM
NC(N)=N/N=C(\c1nc2ccc([N+](=O)[O-])cc2[nH]c1=O)C(O)c1ccc([N+](=O)[O-])cc1 (stereo not given)	–	> 100 µM
N#C/C(=C1C=C(Br)/C(=N\O)C=C\1Cl)c1cccc2ccccc12	–	29.3 µM
COC(=O)[C@@H](C)CNS(=O)(=O)N(c1cc(C(F)(F)F)cc(C(F)(F)F)c1)C1CCN(Cc2ccc(F)cc2)CC1	11.5	26.3 µM
C=C1C(=O)O[C@@H]2/C=C(\C)CC/C=C(/COC(C)=O)C[C@@H](OC(C)=O)[C@@H]12	–	33.2 µM
COC(=O)[C@H](C)NC(=O)NC(=O)NC(=O)CI	17.2	36.3 µM
COc1cc2c(c(OC)c1OC)-c1ccc(OC)c(=O)cc1[C@@H](NC(=O)c1ccccc1)CC2	–	33.1 µM
NCCCCN(CCCN)/[N+]([O-])=N\O	–	> 100 µM
CCOc1ccccc1NC(=O)CC(C(=O)OC)C(=O)C(=O)OC (stereo not given)	–	> 100 µM
COc1cccc2c1C(=O)c1c(O)c3c(c(O)c1C2=O)C[C@@](O)(C(C)=O)C[C@@H]3OC1OC(C)C(O)C(N)C1Br (stereo not given in full)	0.0365	3.63 µM and 1.21 µM
CN1C/C=C\CCOc2cccc(c2)-c2ccnc(n2)Nc2cccc(c2)C1	0.0561	0.548 µM
COC(=O)C1=C(C)N(NC(=O)OC(C)(C)C)C(=O)C1=P(c1ccccc1)(c1ccccc1)c1ccccc1	–	> 100 µM
O=C1OC(c2ccccc2)=N/C1=C\c1cccc2ccccc12	–	> 100 µM
C[C@@H]1CC(=O)C2CCCC1C2=O (stereo not given in full)	–	> 100 µM
COC1=C(C)C(=O)c2c(c(COC(N)=O)c3n2CC2C3N2C)C1=O (stereo not given)	–	0.6 µM
COc1ccc(Cn2cc3c(c2-c2ccccc2)CC(C)(C)c2cnoc2-3)cc1	3.92	> 100 µM
CN1c2ccc(Cl)cc2C(=O)NC1c1ccc([N+](=O)[O-])s1 (stereo not given)	–	21.5 µM
c1cc(CNC23CC4CC(CC(C4)C2)C3)cc(C[N+](Cc2cccc(CNC34CC5CC(CC(C5)C3)C4)c2)(Cc2cccc(CNC34CC5CC(CC(C5)C3)C4)c2)Cc2cccc(CNC34CC5CC(CC(C5)C3)C4)c2)c1 (stereo not given)	6.39	22.6 µM
Oc1cccnc1CN1CCCCC1	–	> 100 µM
CN(C)C(=O)c1cc2cnc(Nc3ccc(-c4csc5c(=S)cc(N6CCOCC6)oc45)cc3)nc2n1C1CCCC1	0.693	> 50 µM
COC1=CC(=O)c2nc(-c3cccc(C)n3)[nH]c2C1=O	24.7	49.6 µM

The molecules below were run on UACC-62 melanoma (assay: NCI-60 cell line screen, 48 h).

Structure (SMILES)	GI50 [µM]	TGI
COc1cc2c3c(n(CCCNC(=O)OCC4c5ccccc5-c5ccccc54)c(=O)c2cc1OC)-c1cc2c(cc1/C3=C\CCNC(=O)OCC1c3ccccc3-c3ccccc31)OCO2	> 21.6	> 36 µM
NC(N)=N/N=C(\c1nc2ccc([N+](=O)[O-])cc2[nH]c1=O)C(O)c1ccc([N+](=O)[O-])cc1 (stereo not given)	–	> 100 µM
N#C/C(=C1C=C(Br)/C(=N\O)C=C\1Cl)c1cccc2ccccc12	–	15.8 µM
COC(=O)[C@@H](C)CNS(=O)(=O)N(c1cc(C(F)(F)F)cc(C(F)(F)F)c1)C1CCN(Cc2ccc(F)cc2)CC1	11	24.6 µM
C=C1C(=O)O[C@@H]2/C=C(\C)CC/C=C(/COC(C)=O)C[C@@H](OC(C)=O)[C@@H]12	–	26.4 µM
COC(=O)[C@H](C)NC(=O)NC(=O)NC(=O)CI	16.8	34.2 µM
COc1cc2c(c(OC)c1OC)-c1ccc(OC)c(=O)cc1[C@@H](NC(=O)c1ccccc1)CC2	< 0.003	30 µM and 59.7 µM
NCCCCN(CCCN)/[N+]([O-])=N\O	–	> 100 µM
CCOc1ccccc1NC(=O)CC(C(=O)OC)C(=O)C(=O)OC (stereo not given)	–	> 100 µM
COc1cccc2c1C(=O)c1c(O)c3c(c(O)c1C2=O)C[C@@](O)(C(C)=O)C[C@@H]3OC1OC(C)C(O)C(N)C1Br (stereo not given in full)	0.0459	0.892 µM and 0.424 µM
CN1C/C=C\CCOc2cccc(c2)-c2ccnc(n2)Nc2cccc(c2)C1	0.0259	0.148 µM
COC(=O)C1=C(C)N(NC(=O)OC(C)(C)C)C(=O)C1=P(c1ccccc1)(c1ccccc1)c1ccccc1	–	> 100 µM
O=C1OC(c2ccccc2)=N/C1=C\c1cccc2ccccc12	–	> 100 µM
C[C@@H]1CC(=O)C2CCCC1C2=O (stereo not given in full)	–	> 100 µM
COC1=C(C)C(=O)c2c(c(COC(N)=O)c3n2CC2C3N2C)C1=O (stereo not given)	–	0.117 µM
COc1ccc(Cn2cc3c(c2-c2ccccc2)CC(C)(C)c2cnoc2-3)cc1	0.958	> 100 µM
CN1c2ccc(Cl)cc2C(=O)NC1c1ccc([N+](=O)[O-])s1 (stereo not given)	–	26.3 µM
c1cc(CNC23CC4CC(CC(C4)C2)C3)cc(C[N+](Cc2cccc(CNC34CC5CC(CC(C5)C3)C4)c2)(Cc2cccc(CNC34CC5CC(CC(C5)C3)C4)c2)Cc2cccc(CNC34CC5CC(CC(C5)C3)C4)c2)c1 (stereo not given)	4.86	15.4 µM
Oc1cccnc1CN1CCCCC1	–	> 100 µM
CN(C)C(=O)c1cc2cnc(Nc3ccc(-c4csc5c(=S)cc(N6CCOCC6)oc45)cc3)nc2n1C1CCCC1	0.234	1.72 µM
COC1=CC(=O)c2nc(-c3cccc(C)n3)[nH]c2C1=O	30.3	> 100 µM
